Type in all cases: cell-based
One assay concerns HIV-1BAL-env. Particulars: HOS/CD4/CCR5 cells co-expressing FPR.
Assay [1] deals with parental or mock transfected cells. As to the kind of experiment: Ca2+ mobilization in parental or mock transfected rat basophil cell line and HEK 293 cells. Background: Calcium assays in cells follow changes in intracellular calcium, usually with a dye or a luminescent sensor.
The target in a further assay is T1, FPR (Homo sapiens, UniProt P21462).
T1 construct: H. Ali and R. Snyderman (Duke University); host or cells: RBL-2H3 rat basophilic leukemia cells
T1 sequence (P21462 1-350): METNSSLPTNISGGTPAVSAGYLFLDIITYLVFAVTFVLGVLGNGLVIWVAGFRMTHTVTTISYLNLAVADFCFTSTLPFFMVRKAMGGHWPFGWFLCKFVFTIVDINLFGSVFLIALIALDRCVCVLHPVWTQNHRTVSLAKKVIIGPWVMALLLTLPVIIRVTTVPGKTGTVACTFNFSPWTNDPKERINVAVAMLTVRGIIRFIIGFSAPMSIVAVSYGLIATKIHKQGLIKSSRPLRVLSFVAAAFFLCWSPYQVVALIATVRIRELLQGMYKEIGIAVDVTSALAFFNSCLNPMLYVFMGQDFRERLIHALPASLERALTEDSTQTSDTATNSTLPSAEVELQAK
As to the kind of experiment: Migration of ETFR cells. Particulars: ETFR cells (overexpressing FPR).

On to `CSCC[C@H](NC=O)C(=O)N[C@@H](CC(C)C)C(=O)N[C@@H](Cc1ccccc1)C(=O)O` [fMLP, N-formyl-methionyl-leucyl-phenylalanine], for which the HIV-1BAL-env-mediated fusion result in the assay on HIV-1BAL-env is recorded as “markedly inhibited”. For the same molecule, the “Ca2+ mobilization” value in assay [1] is given as “did not induce Ca^2+ mobilization”.
In the case of “TRPNYNKRKRIHIGPGRAFYTTKNIIGTIRQAH-NH2 [V3 peptide]”, the migration / chemotaxis result with FPR is recorded as “low level of chemotaxis response”.

The record behind these values is US6808877B2, “Ligands for FPR class receptors that induce a host immune response to a pathogen or inhibit HIV infection” (priority 2000, dated 2004).
